{
  "source": "patent US8940909B2",
  "about": "“Indicator platform” (Biosynth AG, priority 2009, dated 2015)",
  "assay_in_all_cases": "IO staining of colonies of beta-D-galactosidase positive/negative bacteria (Table IVb)",
  "format_in_all_cases": "cell-based",
  "key": {"[1]": {"tested_on": "Aeromonas hydrophila 292", "details": "Aeromonas hydrophila strain 292, b-gal +; 24 h on Nutrient Agar, 150 mg/l indicator, 100 mg/l IPTG"}, "[2]": {"tested_on": "Citrobacter freundii 181", "details": "Citrobacter freundii strain 181, b-gal +; 24 h on Nutrient Agar, 150 mg/l indicator, 100 mg/l IPTG"}, "[3]": {"tested_on": "Enterobacter aerogenes 242", "details": "Enterobacter aerogenes strain 242, b-gal +; 24 h on Nutrient Agar, 150 mg/l indicator, 100 mg/l IPTG"}, "[4]": {"tested_on": "Enterobacter cloacae 245", "details": "Enterobacter cloacae strain 245, b-gal +; 24 h on Nutrient Agar, 150 mg/l indicator, 100 mg/l IPTG"}, "[5]": {"tested_on": "Escherichia coli (O157:H7) 60", "details": "Escherichia coli (O157:H7) strain 60, b-gal +; 24 h on Nutrient Agar, 150 mg/l indicator, 100 mg/l IPTG"}, "[6]": {"tested_on": "Escherichia coli 61", "details": "Escherichia coli strain 61, b-gal +; 24 h on Nutrient Agar, 150 mg/l indicator, 100 mg/l IPTG"}, "[7]": {"tested_on": "Escherichia coli 270", "details": "Escherichia coli strain 270, b-gal +; 24 h on Nutrient Agar, 150 mg/l indicator, 100 mg/l IPTG"}, "[8]": {"tested_on": "Klebsiella pneumoniae 164", "details": "Klebsiella pneumoniae strain 164, b-gal +; 24 h on Nutrient Agar, 150 mg/l indicator, 100 mg/l IPTG"}, "[9]": {"tested_on": "Serratia marcescens 40", "details": "Serratia marcescens strain 40, b-gal +; 24 h on Nutrient Agar, 150 mg/l indicator, 100 mg/l IPTG"}, "[10]": {"tested_on": "Staphylococcus intermedius 31", "details": "Staphylococcus intermedius strain 31, b-gal +; 24 h on Nutrient Agar, 150 mg/l indicator, 100 mg/l IPTG"}, "[11]": {"tested_on": "Staphylococcus saprophyticus 273", "details": "Staphylococcus saprophyticus strain 273, b-gal +; 24 h on Nutrient Agar, 150 mg/l indicator, 100 mg/l IPTG"}, "[12]": {"tested_on": "Shigella dysenteriae Serovar 1 131", "details": "Shigella dysenteriae Serovar 1 strain 131, b-gal +/−; 24 h on Nutrient Agar, 150 mg/l indicator, 100 mg/l IPTG"}, "[13]": {"tested_on": "Shigella sonnei 133", "details": "Shigella sonnei strain 133, b-gal +/−; 24 h on Nutrient Agar, 150 mg/l indicator, 100 mg/l IPTG"}, "[14]": {"tested_on": "Yersinia enterocolitica 175", "details": "Yersinia enterocolitica strain 175, b-gal +/−; 24 h on Nutrient Agar, 150 mg/l indicator, 100 mg/l IPTG"}, "[15]": {"tested_on": "Salmonella enteritidis 43", "details": "Salmonella enteritidis strain 43, b-gal −; 24 h on Nutrient Agar, 150 mg/l indicator, 100 mg/l IPTG"}, "[16]": {"tested_on": "Bacillus subtilis 65", "details": "Bacillus subtilis strain 65, b-gal −; 24 h on Nutrient Agar, 150 mg/l indicator, 100 mg/l IPTG"}, "[17]": {"tested_on": "Listeria monocytogenes (4b) 290", "details": "Listeria monocytogenes (4b) strain 290, b-gal −; 24 h on Nutrient Agar, 150 mg/l indicator, 100 mg/l IPTG"}, "[18]": {"tested_on": "Pseudomonas aeruginosa 168", "details": "Pseudomonas aeruginosa strain 168, b-gal −, 24 h on Nutrient Agar, 150 mg/l indicator, 100 mg/l IPTG"}, "[19]": {"tested_on": "Shigella boydii 135", "details": "Shigella boydii strain 135, b-gal −; 24 h on Nutrient Agar, 150 mg/l indicator, 100 mg/l IPTG"}, "[20]": {"tested_on": "Staphylococcus aureus 2", "details": "Staphylococcus aureus strain 2, b-gal −, 24 h on Nutrient Agar, 150 mg/l indicator, 100 mg/l IPTG"}, "[21]": {"tested_on": "Streptococcus agalactiae 195", "details": "Streptococcus agalactiae strain 195, b-gal −; 24 h on Nutrient Agar, 150 mg/l indicator, 100 mg/l IPTG"}},
  "data": [
    {"compound": "COc1ccc(C(=O)c2ccccc2-n2cc(O[C@@H]3O[C@H](CO)[C@H](O)[C@H](O)[C@H]3O)c3c(Cl)c(Br)ccc32)c(OC)c1", "note": "[Indicator I28a, 5-Bromo-4-chloro-1-[2-(2,4-dimethoxybenzoyl)phenyl]-1H-indol-3-yl-beta-D-galactopyranoside]", "values": [
      {"measurement": "C: Color of colonies", "setting": "[1]", "value": "+/−"},
      {"measurement": "F: Fluorescence of colonies", "setting": "[1]", "value": "−"},
      {"measurement": "G: Growth of colonies", "setting": "[1]", "value": "+"},
      {"measurement": "C: Color of colonies", "setting": "[2]", "value": "+"},
      {"measurement": "F: Fluorescence of colonies", "setting": "[2]", "value": "+/−"},
      {"measurement": "G: Growth of colonies", "setting": "[2]", "value": "+"},
      {"measurement": "C: Color of colonies", "setting": "[3]", "value": "+"},
      {"measurement": "F: Fluorescence of colonies", "setting": "[3]", "value": "+/−"},
      {"measurement": "G: Growth of colonies", "setting": "[3]", "value": "+"},
      {"measurement": "C: Color of colonies", "setting": "[4]", "value": "+"},
      {"measurement": "F: Fluorescence of colonies", "setting": "[4]", "value": "+/−"},
      {"measurement": "G: Growth of colonies", "setting": "[4]", "value": "+"},
      {"measurement": "C: Color of colonies", "setting": "[5]", "value": "+"},
      {"measurement": "F: Fluorescence of colonies", "setting": "[5]", "value": "+/−"},
      {"measurement": "G: Growth of colonies", "setting": "[5]", "value": "+"},
      {"measurement": "C: Color of colonies", "setting": "[6]", "value": "+"},
      {"measurement": "F: Fluorescence of colonies", "setting": "[6]", "value": "+/−"},
      {"measurement": "G: Growth of colonies", "setting": "[6]", "value": "+"},
      {"measurement": "C: Color of colonies", "setting": "[7]", "value": "++"},
      {"measurement": "F: Fluorescence of colonies", "setting": "[7]", "value": "+/−"},
      {"measurement": "G: Growth of colonies", "setting": "[7]", "value": "+"},
      {"measurement": "C: Color of colonies", "setting": "[8]", "value": "+"},
      {"measurement": "F: Fluorescence of colonies", "setting": "[8]", "value": "+/−"},
      {"measurement": "G: Growth of colonies", "setting": "[8]", "value": "+"},
      {"measurement": "C: Color of colonies", "setting": "[9]", "value": "+/−"},
      {"measurement": "F: Fluorescence of colonies", "setting": "[9]", "value": "−"},
      {"measurement": "G: Growth of colonies", "setting": "[9]", "value": "+"},
      {"measurement": "C: Color of colonies", "setting": "[10]", "value": "+"},
      {"measurement": "F: Fluorescence of colonies", "setting": "[10]", "value": "+/−"},
      {"measurement": "G: Growth of colonies", "setting": "[10]", "value": "+"},
      {"measurement": "C: Color of colonies", "setting": "[11]", "value": "+/−"},
      {"measurement": "F: Fluorescence of colonies", "setting": "[11]", "value": "−"},
      {"measurement": "G: Growth of colonies", "setting": "[11]", "value": "+"},
      {"measurement": "C: Color of colonies", "setting": "[12]", "value": "−"},
      {"measurement": "F: Fluorescence of colonies", "setting": "[12]", "value": "−"},
      {"measurement": "G: Growth of colonies", "setting": "[12]", "value": "+"},
      {"measurement": "C: Color of colonies", "setting": "[13]", "value": "+"},
      {"measurement": "F: Fluorescence of colonies", "setting": "[13]", "value": "+/−"},
      {"measurement": "G: Growth of colonies", "setting": "[13]", "value": "+"},
      {"measurement": "C: Color of colonies", "setting": "[14]", "value": "−"},
      {"measurement": "F: Fluorescence of colonies", "setting": "[14]", "value": "−"},
      {"measurement": "G: Growth of colonies", "setting": "[14]", "value": "+"},
      {"measurement": "C: Color of colonies", "setting": "[15]", "value": "−"},
      {"measurement": "F: Fluorescence of colonies", "setting": "[15]", "value": "−"},
      {"measurement": "G: Growth of colonies", "setting": "[15]", "value": "+"},
      {"measurement": "C: Color of colonies", "setting": "[16]", "value": "−"},
      {"measurement": "F: Fluorescence of colonies", "setting": "[16]", "value": "−"},
      {"measurement": "G: Growth of colonies", "setting": "[16]", "value": "+/−"},
      {"measurement": "C: Color of colonies", "setting": "[17]", "value": "−"},
      {"measurement": "F: Fluorescence of colonies", "setting": "[17]", "value": "−"},
      {"measurement": "G: Growth of colonies", "setting": "[17]", "value": "+/−"},
      {"measurement": "C: Color of colonies", "setting": "[18]", "value": "−"},
      {"measurement": "G: Growth of colonies", "setting": "[18]", "value": "+"},
      {"measurement": "F: Fluorescence of colonies", "setting": "[18]; footnote 1: blue autofluorescence", "value": "+^1"},
      {"measurement": "C: Color of colonies", "setting": "[19]", "value": "−"},
      {"measurement": "F: Fluorescence of colonies", "setting": "[19]", "value": "−"},
      {"measurement": "G: Growth of colonies", "setting": "[19]", "value": "+"},
      {"measurement": "F: Fluorescence of colonies", "setting": "[20]", "value": "−"},
      {"measurement": "G: Growth of colonies", "setting": "[20]", "value": "+/−"},
      {"measurement": "C: Color of colonies", "setting": "[20]; footnote 2: S. aureus natural color", "value": "−"},
      {"measurement": "C: Color of colonies", "setting": "[21]", "value": "−"},
      {"measurement": "F: Fluorescence of colonies", "setting": "[21]", "value": "−"},
      {"measurement": "G: Growth of colonies", "setting": "[21]", "value": "+/−"}
    ]}
  ]
}
